Measured values published in paper PMC12114895, “Lanthanides-Based Nanoparticles Conjugated with Rose Bengal for FRET-Mediated X-Ray-Induced PDT” (Pharmaceuticals, 2025).
Entries after “also recorded” stand apart in the source; their conditions may differ. Like-named read-outs stand apart in the source and are kept apart here.

How the values were obtained:
NRP-1 [1] = target: T1, NRP-1 (Homo sapiens, UniProt O14786); details: peptide alone, cited from earlier work
Method: In the nano AGuIX platform tested, firstly, DOTA was chelated with Gd or Tb, and secondly, a targeted peptide recognizing neuropilin 1 (NRP-1) coupled to RB (i.e., K(RB)DKPPR) was conjugated to the surface of AGuIX NPs. […] In K(RB)DKPPR, conjugation via a maleimide function enhanced the affinity constant to the order of nM. Finally, NPs were tested in vitro on U-251 MG cells, derived from a human glioblastoma multiforme, using an anchorage-dependent clonogenic assay. […] An increase in SOSG fluorescence signal was observed confirming ^1O2 production, which was inhibited by the addition of NaN3 in the reaction mixture (Figure 11).

Zeta potential = assay type: physicochemical; details: DLS, Zetasizer Nano-Z, He-Ne 633 nm; pH 7.2 mentioned; listed as AGuIX Ln@Mal-K(RB)DKPPR (Ln = Gd)
Method: The zeta potential (ξ) for each NPs was determined using Zetasizer Nano-Z (Malvern, UK) equipped with a He-Ne laser at 633 nm.

[2] = Hydrodynamic size by TDA-ICP-MS; assay type: physicochemical; details: Table 4, listed as AGuIX Ln@Mal-K(RB)DKPPR (Ln = Gd)
Method: TDA experiments were conducted using a TDA-ICP-MS hyphenation between a Sciex P/ACE MDQ instrument and a 7700 Agilent ICP-MS. Fused silica capillaries with an inner diameter of 75 µm and outer diameter of 375 µm, and a total length of 64 cm, were coated with hydroxypropylcellulose (HPC) using a solution of 0.05 g mL^−1 in water. Detection was carried out by ICP-MS at m/z = 158 and m/z = 159 for Gd and Tb detection, respectively. Samples were hydrodynamically injected (0.3psi for 3 s), then mobilized using Tris 10 mM and NaCl 125 mM at 0.7 psi. Between runs, the capillary was flushed at 5 psi for 5 min with the mobilization medium. All measurements were performed at least in duplicates.
The detected peak was fitted by a sum of Gaussian distributions using Origin 8.5 software, according to Equation (8).(8) St=∑i=12Ai/σi 2πexp−t−t0^2/2σi2 where t0 is the peak residence time, and […] are the area under the curve and the temporal variance associated with each species i, respectively.
Under these experimental conditions, the molecular diffusion coefficient D is given by(9) D=Rc2t0/24σ^2=2kBT/6πηDh where Rc is the capillary radius, kB is the Boltzmann constant, T is the temperature, η is the viscosity, and Dh is the hydrodynamic diameter of the solute.
Therefore, using Equation (9), the hydrodynamic diameters can be calculated from the temporal variances measured from the fitted Taylorgram.

RB fluorescence lifetime = assay type: physicochemical; details: D2O, λexc = 470 nm
Method: The Ln luminescence lifetime is recorded after excitation at 545 nm for Tb and 313 nm for Gd. The fluorescence lifetime of RB is recorded after excitation at 470 nm ( τf470 ). ^1O2 emission spectra are obtained after excitation at 558 nm (maximum absorption wavelength of RB) but also after excitation at 351 nm for Tb and 273 nm for Gd.
(§1) Absorption spectra were recorded on a UV-3600 UV–visible double beam spectrophotometer (Shimadzu, Marne-La-Vallée, France). Fluorescence spectra were recorded on a Fluorolog FL3-222 spectrofluorimeter (Horiba Jobin Yvon, Palaiseau, France) equipped with a 450 W Xenon lamp and thermostated cell compartment (25 °C), a UV–visible photomultiplier R928 (Hamamatsu Photonics, Hamamatsu, Japan) and an InGaAs infrared detector (DSS-16A020L Electro-Optical System Inc, Phoenixville, PA, USA). The excitation beam was diffracted by a double ruled grating SPEX monochromator (1200 grooves/mm blazed at 330 nm). The emission beam was diffracted by a double ruled grating SPEX monochromator (1200 grooves/mm blazed at 500 nm). Singlet oxygen emission was detected through a double ruled grating SPEX monochromator (600 grooves/mm blazed at 1 µm) and a long-wave pass (780 nm). All spectra were measured in four-face quartz vials.

Ln luminescence lifetime = assay type: physicochemical; details: D2O, λexc/λdetection = 273/313 nm
[3] = Singlet oxygen production quantum yield; assay type: physicochemical; details: D2O, reference Eosin Y; for ^1O2 quantum yield ΦΔ558: λexc = 558 nm
[4] = Fluorescence quantum yield; assay type: physicochemical; details: D2O, λexc = 558 nm; reference tetraphenylporphyrin
Method: as §1
The fluorescence quantum yield (Φf) is calculated using Equation (6).(6) Φf=Φf0 . If/If0.OD0/OD. (n/n0)^2 where Φf and Φf0, If and If0, OD and OD0, n and n0 are the quantum yields, fluorescence intensities, optical densities, and refractive indices of the sample and reference, respectively.
Tetraphenylporphyrin (TPP) was chosen as the fluorescence reference standard (Φf0 = 0.11, toluene).

U-251 MG cells = test: Anchorage-dependent clonogenic assay with X-ray irradiation; assay type: cell-based, human; details: [RB] = 1 µM, 24 h, X-ray 2 Gy (320 kV, 10 mA, 3 Gy/min), clones after 7 days; fraction of untreated non-irradiated cells; mean, triplicates from 3 experiments (n = 9)
[5] = in ethanol; cited from earlier work
Text: RB is a xanthene PS [22] derived from fluorescein (Figure 1a) with interesting photophysical and sonosensitive properties. For example, Nonaka et al. used sonodynamic therapy (SDT) with RB and focused ultra-sound to treat experimental intracranial glioma in rats. […] RB photoactivation can be used for external application on the body, such as wound sealing or ...

NRP-1 [6] = target: T1, NRP-1; test: NRP-1 binding, competitive assay; details: conjugated via maleimide on AGuIX NPs
Method: The affinity of AGuIX Ln@Mal-K(RB) and AGuIX Ln@Mal-K(RB)DKPPR to NRP-1 was determined as previously described in terms of IC50 in another study.

[7] = listed as AGuIX Ln@Mal-K(RB)DKPPR (Ln = Gd)

T1 sequence (O14786 22-923): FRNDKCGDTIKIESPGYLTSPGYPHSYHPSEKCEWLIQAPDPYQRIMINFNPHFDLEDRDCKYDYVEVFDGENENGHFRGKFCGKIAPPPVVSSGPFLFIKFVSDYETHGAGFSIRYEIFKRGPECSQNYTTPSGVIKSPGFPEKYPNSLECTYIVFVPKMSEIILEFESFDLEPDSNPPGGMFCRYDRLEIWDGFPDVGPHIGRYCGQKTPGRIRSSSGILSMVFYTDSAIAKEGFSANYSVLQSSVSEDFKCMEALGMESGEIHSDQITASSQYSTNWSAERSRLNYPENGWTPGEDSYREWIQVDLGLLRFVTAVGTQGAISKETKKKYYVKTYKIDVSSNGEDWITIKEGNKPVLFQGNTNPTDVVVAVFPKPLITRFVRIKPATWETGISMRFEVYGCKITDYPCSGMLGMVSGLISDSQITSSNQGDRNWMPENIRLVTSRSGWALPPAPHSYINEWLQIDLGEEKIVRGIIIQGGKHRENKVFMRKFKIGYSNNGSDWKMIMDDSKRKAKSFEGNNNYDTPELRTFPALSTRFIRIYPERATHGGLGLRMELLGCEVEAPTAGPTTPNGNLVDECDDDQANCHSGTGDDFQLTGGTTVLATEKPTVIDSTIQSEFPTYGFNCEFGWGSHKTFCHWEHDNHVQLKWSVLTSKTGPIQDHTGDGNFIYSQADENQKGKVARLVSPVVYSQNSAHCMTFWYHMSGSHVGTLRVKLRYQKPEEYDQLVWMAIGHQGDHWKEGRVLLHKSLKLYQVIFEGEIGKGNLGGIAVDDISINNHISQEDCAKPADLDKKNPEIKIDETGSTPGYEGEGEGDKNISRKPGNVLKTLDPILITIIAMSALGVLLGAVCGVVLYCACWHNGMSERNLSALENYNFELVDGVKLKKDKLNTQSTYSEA

KDKPPR [NRP-1-targeting peptide]
affinity for NRP-1 (NRP-1 [1]; ref 37): affinity of the order of μM
affinity for NRP-1 (NRP-1 [1]; ref 40): micromolar affinity
binding affinity for NRP-1 (NRP-1 [1]; ref 41): around 1 μM

Mal-K(RB)DKPPR [AGuIX Gd@Mal-K(RB)DKPPR, Mal-K(RB)DKPPR conjugated to thiolated AGuIX Gd NPs by thiol-maleimide click chemistry]
Zeta potential (ζ) (Zeta potential): −10 mV
percentage of population P1 [2]: 95%
percentage of population P2 [2]: 5%
Size, population P1 ([2]; Tris 10 mM and NaCl 125 mM): 2.9 nm
Size, population P2 ([2]; Tris 10 mM and NaCl 125 mM): 14.0 nm
RB fluorescence lifetime τf470 (RB fluorescence lifetime; [7]): 3.8 ns
Ln luminescence lifetime τL (Gd) (Ln luminescence lifetime): 345 µs
^1O2 quantum yield ΦΔ273(Gd) ([3]; λexc = 273 nm): 0.35
^1O2 quantum yield ΦΔ558 [3, 7]: 0.67
Fluorescence quantum yield Φf558 [4]: 0.11
Cell survival (clonogenic capability relative to control) (U-251 MG cells): 0.63

O=C1OC2(c3cc(I)c(O)c(I)c3Oc3c2cc(I)c(O)c3I)c2c(Cl)c(Cl)c(Cl)c(Cl)c21 [RB, Rose Bengal]
RB fluorescence lifetime τf470 (RB fluorescence lifetime): 0.63 ns
^1O2 quantum yield ΦΔ351(Tb) or ΦΔ273(Gd) ([3]; λexc = 351 nm or 273 nm (not told apart for RB)): 0.00
^1O2 quantum yield ΦΔ558 [3]: 0.67
Fluorescence quantum yield Φf558 [4]: 0.15
fluorescence quantum yield (Φf) [5]: 0.11
singlet oxygen quantum yield (ΦΔ) [5]: 0.68

K(RB)DKPPR [NRP-1-targeting peptide coupled to RB]
affinity for NRP-1 (NRP-1 [6]): order of nM; also recorded: affinity in the nM range
